Experiments:
Format in all cases: in vivo
Parameters in all cases: key: 0 is no effect; 10 is complete control
[1] = tested on: cocklebur (Xanthium strumarium); test: Test B pre-/postemergence; details: for Cocklebur plant response rating: Preemergence
Procedure, shortened: (§1)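 Response scores run from 0, meaning no effect, to 10, meaning complete control, assigned by eye relative to controls twelve to sixteen days after spraying. Treatment was both preemergence on planted seed and postemergence on plants at the 1- to 4-leaf stage.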

[2] = tested on: soybean (Glycine max); test: Test B pre-/postemergence
Procedure, shortened: as §1

[3] = tested on: blackgrass (Alopecurus myosuroides); test: Test B pre-/postemergence; details: for Blackgrass plant response rating: Preemergence
Procedure, shortened: as §1

[4] = tested on: wild oat (Avena fatua); test: Test B pre-/postemergence
Procedure, shortened: as §1

[5] = tested on: rape (Brassica napus); test: Test B pre-/postemergence
Procedure, shortened: as §1

[6] = tested on: pigweed (Amaranthus retroflexus); test: Test B pre-/postemergence
Procedure, shortened: as §1

[7] = tested on: giant foxtail (Setaria faberii); test: Test B pre-/postemergence
Procedure, shortened: as §1

[8] = tested on: bedstraw (Galium aparine); test: Test B pre-/postemergence; details: for Bedstraw plant response rating: Preemergence
Procedure, shortened: as §1

[9] = tested on: sugar beet (Beta vulgaris); test: Test B pre-/postemergence
Procedure, shortened: as §1

[10] = tested on: velvetleaf (Abutilon theophrasti); test: Test B pre-/postemergence
Procedure, shortened: as §1

[11] = tested on: crabgrass (Digitaria sanguinalis); test: Test B pre-/postemergence; details: for Crabgrass plant response rating: Preemergence
Procedure, shortened: as §1

[12] = tested on: wheat (Triticum aestivum); test: Test B pre-/postemergence
Procedure, shortened: as §1

[13] = tested on: broadleaf signalgrass (Brachiaria decumbens); test: Test B pre-/postemergence; details: for B. signalgrass plant response rating: Preemergence
Procedure, shortened: as §1

[14] = tested on: momingglory (Ipomoea hederacea); test: Test B pre-/postemergence
Procedure, shortened: as §1

[15] = tested on: corn (Zea mays); test: Test B pre-/postemergence; details: for Corn plant response rating: Preemergence
Procedure, shortened: as §1

[16] = tested on: purple nutsedge (Cyperus rotundus); test: Test B pre-/postemergence
Procedure, shortened: as §1

[17] = tested on: duck salad (Heteranthera limosa); test: Test B flood test
Procedure, shortened: (§2)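 Each value is a visual injury score relative to controls, with 10 meaning complete control and 0 no effect. Evaluation took place twelve to sixteen days after the 2-leaf-stage plants were treated and kept in the greenhouse.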

[18] = tested on: smallflower flatsedge (Cyperus difformis); test: Test B flood test
Procedure, shortened: as §2

[19] = tested on: bamyardgrass (Echinochloa crus-galli); test: Test B flood test
Procedure, shortened: as §2

[20] = tested on: rice (Oryza sativa); test: Test B flood test
Procedure, shortened: as §2

[21] = Rate 250 g/ha, Postemergence (so in the source)
[22] = Rate 62 g/ha, Postemergence (flood test)
[23] = Rate 125 g/ha, Postemergence, flood test
[24] = Rate 250 g/ha, Postemergence (flood test species)
[25] = Rate 125 g/ha, Postemergence section (flood test species)

With `Cc1cnc(-c2ccccc2F)nc1Cc1cccc(C#N)c1` [Compound 37] the “Plant response rating, Cocklebur” value ([1]; Rate 62 g/ha, Postemergence) was 1, the “Cocklebur plant response rating” value ([1]; Rate 62 g/ha) was 0 and the “Plant response rating, Cocklebur” value ([1]; Rate 125 g/ha, Postemergence) was 2. The “Cocklebur plant response rating” value ([1]; Rate 125 g/ha) was 0, the “Plant response rating, Cocklebur” value ([1]; Rate 250 g/ha, Postemergence) was 3 and the “Plant response rating, Cocklebur” value [1, 21] was 0. For the same compound, the “Plant response rating, Soybean” value ([2]; Rate 62 g/ha, Postemergence) was 0, the “Soybean plant response rating” value ([2]; Rate 62 g/ha, Preemergence) was 0 and the “Soybean plant response rating” value ([2]; Rate 125 g/ha, Postemergence) was 0. For the same compound, the “Plant response rating, Soybean” value ([2]; Rate 125 g/ha, Preemergence) was 0, the “Plant response rating, Soybean” value ([2]; Rate 250 g/ha, Postemergence) was 0 and the “Plant response rating, Soybean” value [2, 21] was 0. The “Plant response rating, Blackgrass” value ([3]; Rate 62 g/ha, Postemergence) was 0, the “Blackgrass plant response rating” value ([3]; Rate 62 g/ha) was 0 and the “Plant response rating, Blackgrass” value ([3]; Rate 125 g/ha, Postemergence) was 0. For the same compound, the “Blackgrass plant response rating” value ([3]; Rate 125 g/ha) was 0, the “Plant response rating, Blackgrass” value ([3]; Rate 250 g/ha, Postemergence) was 0 and the “Plant response rating, Blackgrass” value [3, 21] was 0. For the same compound, the “Wild oats plant response rating” value ([4]; Rate 62 g/ha, Postemergence) was 0, the “Wild oats plant response rating” value ([4]; Rate 62 g/ha, Preemergence) was 0 and the “Wild oats plant response rating” value ([4]; Rate 125 g/ha, Postemergence) was 0. The “Plant response rating, Wild oats” value ([4]; Rate 125 g/ha, Preemergence) was 0, the “Plant response rating, Wild oats” value ([4]; Rate 250 g/ha, Postemergence) was 0 and the “Plant response rating, Wild oats” value [4, 21] was 0. For the same compound, the “Plant response rating, Rape” value ([5]; Rate 62 g/ha, Postemergence) was 1, the “Rape plant response rating” value ([5]; Rate 62 g/ha, Preemergence) was 0 and the “Rape plant response rating” value ([5]; Rate 125 g/ha, Postemergence) was 3. The “Rape plant response rating” value ([5]; Rate 125 g/ha, Preemergence) was 0, the “Plant response rating, Rape” value ([5]; Rate 250 g/ha, Postemergence) was 4 and the “Plant response rating, Rape” value [5, 21] was 0. The “Plant response rating, Redroot pigweed” value ([6]; Rate 62 g/ha, Postemergence) was 1, the “Redroot pigweed plant response rating” value ([6]; Rate 62 g/ha, Preemergence) was 0 and the “Redroot pigweed plant response rating” value ([6]; Rate 125 g/ha, Postemergence) was 1. For the same compound, the “Redroot pigweed plant response rating” value ([6]; Rate 125 g/ha, Preemergence) was 0, the “Plant response rating, Redroot pigweed” value ([6]; Rate 250 g/ha, Postemergence) was 7 and the “Plant response rating, Redroot pigweed” value [6, 21] was 0. The “Plant response rating, Giant foxtail” value ([7]; Rate 62 g/ha, Postemergence) was 0, the “Giant foxtail plant response rating” value ([7]; Rate 62 g/ha, Preemergence) was 0 and the “Giant foxtail plant response rating” value ([7]; Rate 125 g/ha, Postemergence) was 0. For the same compound, the “Giant foxtail plant response rating” value ([7]; Rate 125 g/ha, Preemergence) was 0, the “Plant response rating, Giant foxtail” value ([7]; Rate 250 g/ha, Postemergence) was 1 and the “Plant response rating, Giant foxtail” value [7, 21] was 0. The “Plant response rating, Bedstraw” value ([8]; Rate 62 g/ha, Postemergence) was 1, the “Bedstraw plant response rating” value ([8]; Rate 62 g/ha) was 0 and the “Plant response rating, Bedstraw” value ([8]; Rate 125 g/ha, Postemergence) was 1. The “Bedstraw plant response rating” value ([8]; Rate 125 g/ha) was 0, the “Plant response rating, Bedstraw” value [8, 21] was 0 and the “Plant response rating, Sugarbeets” value ([9]; Rate 62 g/ha, Postemergence) was 1. For the same compound, the “Sugarbeets plant response rating” value ([9]; Rate 62 g/ha, Preemergence) was 0, the “Sugarbeets plant response rating” value ([9]; Rate 125 g/ha, Postemergence) was 5 and the “Plant response rating, Sugarbeets” value ([9]; Rate 125 g/ha, Preemergence) was 0. The “Plant response rating, Sugarbeets” value ([9]; Rate 250 g/ha, Postemergence) was 5, the “Plant response rating, Sugarbeets” value [9, 21] was 0 and the “Plant response rating, Velvetleaf” value ([10]; Rate 62 g/ha, Postemergence) was 0. For the same compound, the “Velvetleaf plant response rating” value ([10]; Rate 62 g/ha, Preemergence) was 0, the “Velvetleaf plant response rating” value ([10]; Rate 125 g/ha, Postemergence) was 0 and the “Plant response rating, Velvetleaf” value ([10]; Rate 125 g/ha, Preemergence) was 0. The “Plant response rating, Velvetleaf” value ([10]; Rate 250 g/ha, Postemergence) was 1, the “Plant response rating, Velvetleaf” value [10, 21] was 0 and the “Plant response rating, Crabgrass” value ([11]; Rate 62 g/ha, Postemergence) was 0. The “Crabgrass plant response rating” value ([11]; Rate 62 g/ha) was 0, the “Plant response rating, Crabgrass” value ([11]; Rate 125 g/ha, Postemergence) was 0 and the “Crabgrass plant response rating” value ([11]; Rate 125 g/ha) was 0. The “Plant response rating, Crabgrass” value ([11]; Rate 250 g/ha, Postemergence) was 1, the “Plant response rating, Crabgrass” value [11, 21] was 0 and the “Wheat plant response rating” value ([12]; Rate 62 g/ha, Postemergence) was 0. For the same compound, the “Wheat plant response rating” value ([12]; Rate 62 g/ha, Preemergence) was 0, the “Wheat plant response rating” value ([12]; Rate 125 g/ha, Postemergence) was 0 and the “Plant response rating, Wheat” value ([12]; Rate 125 g/ha, Preemergence) was 0. For the same compound, the “Plant response rating, Wheat” value ([12]; Rate 250 g/ha, Postemergence) was 0, the “Plant response rating, Wheat” value [12, 21] was 0 and the “Plant response rating, B. signalgrass” value ([13]; Rate 62 g/ha, Postemergence) was 0. The “B. signalgrass plant response rating” value ([13]; Rate 62 g/ha) was 0, the “Plant response rating, B. signalgrass” value ([13]; Rate 125 g/ha, Postemergence) was 0 and the “B. signalgrass plant response rating” value ([13]; Rate 125 g/ha) was 0. The “Plant response rating, B. signalgrass” value ([13]; Rate 250 g/ha, Postemergence) was 0, the “Plant response rating, B. signalgrass” value ([13]; Rate 250 g/ha, Postemergence as printed in head r139 (second section for compounds 26-50)) was 0 and the “Plant response rating, Morningglory” value ([14]; Rate 62 g/ha, Postemergence) was 1. For the same compound, the “Morningglory plant response rating” value ([14]; Rate 62 g/ha, Preemergence) was 0, the “Morningglory plant response rating” value ([14]; Rate 125 g/ha, Postemergence) was 1 and the “Morningglory plant response rating” value ([14]; Rate 125 g/ha, Preemergence) was 0. For the same compound, the “Plant response rating, Morningglory” value ([14]; Rate 250 g/ha, Postemergence) was 1, the “Plant response rating, Morningglory” value [14, 21] was 0 and the “Plant response rating, Corn” value ([15]; Rate 62 g/ha, Postemergence) was 1. The “Corn plant response rating” value ([15]; Rate 62 g/ha) was 0, the “Plant response rating, Corn” value ([15]; Rate 125 g/ha, Postemergence) was 1 and the “Corn plant response rating” value ([15]; Rate 125 g/ha) was 0. The “Plant response rating, Corn” value ([15]; Rate 250 g/ha, Postemergence) was 1, the “Plant response rating, Corn” value [15, 21] was 0 and the “Plant response rating, Nutsedge” value ([16]; Rate 62 g/ha, Postemergence) was 0. For the same compound, the “Nutsedge plant response rating” value ([16]; Rate 62 g/ha, Preemergence) was 0, the “Nutsedge plant response rating” value ([16]; Rate 125 g/ha, Postemergence) was 0 and the “Nutsedge plant response rating” value ([16]; Rate 125 g/ha, Preemergence) was 0. The “Plant response rating, Nutsedge” value ([16]; Rate 250 g/ha, Postemergence) was 0, the “Plant response rating, Nutsedge” value [16, 21] was 0 and the “Plant response rating, Ducksalad” value [17, 22] was 0. The “Plant response rating, Ducksalad” value [17, 23] was 0, the “Plant response rating, Ducksalad” value [17, 24] was 0 and the “Plant response rating, S. Flatsedge” value [18, 22] was 0. For the same compound, the “S. Flatsedge plant response rating” value [18, 25] was 0, the “Plant response rating, S. Flatsedge” value [18, 24] was 0 and the “Plant response rating, Barnyardgrass” value [19, 22] was 0. The “Plant response rating, Barnyardgrass” value [19, 23] was 0, the “Plant response rating, Barnyardgrass” value [19, 24] was 0 and the “Plant response rating, Rice” value [20, 22] was 0. For the same compound, the “Rice plant response rating” value [20, 25] was 0 and the “Plant response rating, Rice” value [20, 24] was 0.

— US6525001B1, “Substituted pyrimidine and pyridine herbicides” (Mid-American Commercialization Corporation, priority 1997, dated 2003)
